Reference: publication PMC12100716 (2025)

Columns and labels:
Assay in all cases: PELDOR (EPR) distance distributions
[1] = tested on: C12C30 (RNA, aptamer, Çm (rigid nitroxide spin-label cytidine analogue) at 12 and 30) GGACGACUGAACCGAAAGGUUCUUGGCUGCUUCGGCAGAGGUACGUCC; conditions: 130 mM glutamate buffer, pH 7.5; frozen solution; qualitative
[2] = tested on: C12C47 (RNA, aptamer, Çm (rigid nitroxide spin-label cytidine analogue) at 12 and 47) GGACGACUGAACCGAAAGGUUCUUGGCUGCUUCGGCAGAGGUACGUCC; conditions: 130 mM glutamate buffer, pH 7.5; frozen solution; qualitative
[3] = tested on: C30C47 (RNA, aptamer, Çm (rigid nitroxide spin-label cytidine analogue) at 30 and 47) GGACGACUGAACCGAAAGGUUCUUGGCUGCUUCGGCAGAGGUACGUCC; conditions: 130 mM glutamate buffer, pH 7.5; frozen solution; qualitative; small fraction of free aptamer remains

Measured: binding

CN(C)c1ccc2c(-c3ccc(C(=O)O)cc3C(=O)[O-])c3ccc(=[N+](C)C)cc-3oc2c1
yes: all assays above
